Laboratory results from the NIST ThermoML archive (doi:10.1016/j.tca.2012.10.018).
Several values for one entry are separate records, joined by “and”; a condition that tells them apart may be missing. Identical values can stand only once.

Experiments:
[1] = mn = molality of the nth substance listed, in mol/kg; conditions: 101 kPa, Liquid; for speed of sound: Sing-around technique in a fixed-path interferometer; for mass density: Vibrating tube method
[2] = 101 kPa, Liquid; for speed of sound: Sing-around technique in a fixed-path interferometer; for mass density: Vibrating tube method

CC1(C)SC2C(NC(=O)C(N)c3ccccc3)C(=O)N2C1C(=O)O (stereo not drawn) + O
[1]
Conditions | mass density, m1 = 0.0005 [kg/m3] | mass density, m1 = 0.001 [kg/m3] | mass density, m1 = 0.002 [kg/m3] | mass density, m1 = 0.004 [kg/m3] | speed of sound, m1 = 0.0005 [m/s] | speed of sound, m1 = 0.001 [m/s] | speed of sound, m1 = 0.002 [m/s] | speed of sound, m1 = 0.004
305.15 K | 995.119 | 995.211 | 995.313 | 995.507 | 1513.6 | 1513.8 | 1514.1 | 1514.2 m/s
310.15 K | 993.425 | 993.515 | 993.607 | 993.805 | 1523.4 | 1523.6 | 1524.1 | 1524 m/s
315.15 K | 991.53 | 991.614 | 991.711 | 991.91 | 1531.9 | 1532 | 1532.4 | 1532.4 m/s and 1531.9 m/s

NCC(=O)O [2-aminoacetic acid] + O
[1]
Conditions | mass density, m1 = 0.03272 [kg/m3] | mass density, m1 = 0.04933 [kg/m3] | mass density, m1 = 0.0581 [kg/m3] | mass density, m1 = 0.09278 [kg/m3] | mass density, m1 = 0.1392 [kg/m3] | speed of sound, m1 = 0.03272 [m/s] | speed of sound, m1 = 0.04933 [m/s] | speed of sound, m1 = 0.0581 [m/s] | speed of sound, m1 = 0.09278 [m/s] | speed of sound, m1 = 0.1392 [m/s]
305.15 K | 996.158 | 996.664 | 996.929 | – | 999.339 | 1515 | 1515.7 | 1516.1 | 1517.7 | 1519.6
310.15 K | 993.281 | – | 994.038 | 995.054 | – | 1524.9 | 1525.5 | 1525.9 | 1527.3 | 1529
315.15 K | 992.376 | – | 993.122 | 994.122 | 995.416 | 1533.4 | 1534 | 1534.3 | 1535.6 | 1537.2

CC(C)C[C@H](NC(=O)CN)C(=O)O [glycyl-L-leucine] + O
[1]
Conditions | mass density, m1 = 0.03308 [kg/m3] | mass density, m1 = 0.05972 [kg/m3] | mass density, m1 = 0.09457 [kg/m3] | mass density, m1 = 0.1115 [kg/m3] | speed of sound, m1 = 0.03308 [m/s] | speed of sound, m1 = 0.05972 [m/s] | speed of sound, m1 = 0.09457 [m/s] | speed of sound, m1 = 0.1115 [m/s]
305.15 K | 996.762 | 998.038 | 999.652 | 1000.42 | 1518.1 | 1521.8 | 1526.8 | 1529.1
310.15 K | 993.879 | 995.132 | 996.722 | 997.479 | 1528 | 1531.6 | 1536.3 | 1538.6
315.15 K | 992.968 | 994.198 | 995.757 | 996.494 | 1536.5 | 1539.9 | 1544.4 | 1546.6

NCC(=O)NCC(=O)O [glycylglycine] + O
[1]
Conditions | mass density, m1 = 0.01976 [kg/m3] | mass density, m1 = 0.03098 [kg/m3] | mass density, m1 = 0.06804 [kg/m3] | mass density, m1 = 0.08258 [kg/m3] | mass density, m1 = 0.1196 [kg/m3] | speed of sound, m1 = 0.01976 [m/s] | speed of sound, m1 = 0.03098 [m/s] | speed of sound, m1 = 0.06804 [m/s] | speed of sound, m1 = 0.08258 [m/s] | speed of sound, m1 = 0.1196 [m/s]
305.15 K | 996.227 | 996.841 | 998.809 | 999.555 | 1001.4 | 1515 | 1515.8 | 1518.5 | 1519.5 | 1522.1
310.15 K | 993.362 | 993.969 | 995.921 | 996.662 | 998.494 | 1524.9 | 1525.7 | 1528.1 | 1529.1 | 1531.5
315.15 K | 992.463 | 993.064 | 994.996 | 995.732 | 997.528 | 1533.4 | 1534.1 | 1536.3 | 1537.2 | 1539.4

O [water]
[2]
Conditions | mass density [kg/m3] | speed of sound [m/s]
305.15 K | 995.132 | 1513.5
310.15 K | 992.274 | 1523.5
315.15 K | 991.385 | 1532.2

O [water] + CC(C)C[C@H](NC(=O)CN)C(=O)O
[1], m2 = 0
Conditions | mass density [kg/m3] | speed of sound [m/s]
305.15 K | 995.132 | 1513.5
310.15 K | 992.274 | 1523.5
315.15 K | 991.385 | 1532.2

O [water] + NCC(=O)NCC(=O)O
[1], m2 = 0
Conditions | mass density [kg/m3] | speed of sound [m/s]
305.15 K | 995.132 | 1513.5
310.15 K | 992.274 | 1523.5
315.15 K | 991.385 | 1532.2

O [water] + NCC(=O)O
[1], m2 = 0
Conditions | mass density [kg/m3] | speed of sound [m/s]
305.15 K | 995.132 | 1513.5
310.15 K | 992.274 | 1523.5
315.15 K | 991.385 | 1532.2
